From ChEMBL document CHEMBL1201862, “PubChem BioAssay data set” (2004)
Active and inactive are the calls of the source.

Key:
[1] = target: DNA dC->dU-editing enzyme APOBEC-3A (Homo sapiens, UniProt P31941); assay: Dose Response confirmation of small molecule APOBEC3A DNA Deaminase Inhibitors via a fluorescence-based single-stranded DNA deaminase assay. [Related pubchem assays (depositor defined):AID493011, AID493024]; assay type: functional
[2] = target: DNA dC->dU-editing enzyme APOBEC-3G (Homo sapiens, UniProt Q9HC16); assay type: functional;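 also: Dose-response counterscreen measuring inhibition of APOBEC3G DNA deaminase activity, run while confirming APOBEC3A inhibitors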
[3] = target: Polyadenylate-binding protein 1 (Homo sapiens, UniProt P11940); assay: PABP poly(A) RNA binding inhibitors, primary screen, biochemical, fluorescence polarization, uHTS (AID 2014)
[4] = target: Eukaryotic translation initiation factor 4H (Homo sapiens, UniProt Q15056); assay: human eIF4H binding inhibitors, primary screen, translation initiation inhibitor project, biochemical, uHTS, fluorescence polarization (AID 2012)
[5] = A Cell Based Secondary Assay To Explore Cytotoxicity of Compounds that Sensitize Mycobacterium Tuberculosis to Beta-Lactam Antibiotics.; assay type: functional
[6] = cells; assay type: functional, cell-based
[7] = cells; assay type: functional, cell-based; remark: listed apart in the source
[8] = M. tuberculosis H37Rv growth inhibitors, H37Rv strain (AID 1626); assay type: functional
[9] = target: Luciferin 4-monooxygenase (Photinus pyralis, UniProt P08659); assay: firefly luciferase enzyme inhibitors, dose response, biochemical, luminescence (AID 1891)
[10] = target: T1, Rac GTPase-activating protein 1 (Homo sapiens, UniProt Q9H0H5); assay: MgcRacGAP GTPase-activating activity inhibitors, confirmation, biochemical, ADP Hunter fluorescence, primary and confirmatory (AID 624330); assay type: functional
T1 sequence (Q9H0H5 whole entry): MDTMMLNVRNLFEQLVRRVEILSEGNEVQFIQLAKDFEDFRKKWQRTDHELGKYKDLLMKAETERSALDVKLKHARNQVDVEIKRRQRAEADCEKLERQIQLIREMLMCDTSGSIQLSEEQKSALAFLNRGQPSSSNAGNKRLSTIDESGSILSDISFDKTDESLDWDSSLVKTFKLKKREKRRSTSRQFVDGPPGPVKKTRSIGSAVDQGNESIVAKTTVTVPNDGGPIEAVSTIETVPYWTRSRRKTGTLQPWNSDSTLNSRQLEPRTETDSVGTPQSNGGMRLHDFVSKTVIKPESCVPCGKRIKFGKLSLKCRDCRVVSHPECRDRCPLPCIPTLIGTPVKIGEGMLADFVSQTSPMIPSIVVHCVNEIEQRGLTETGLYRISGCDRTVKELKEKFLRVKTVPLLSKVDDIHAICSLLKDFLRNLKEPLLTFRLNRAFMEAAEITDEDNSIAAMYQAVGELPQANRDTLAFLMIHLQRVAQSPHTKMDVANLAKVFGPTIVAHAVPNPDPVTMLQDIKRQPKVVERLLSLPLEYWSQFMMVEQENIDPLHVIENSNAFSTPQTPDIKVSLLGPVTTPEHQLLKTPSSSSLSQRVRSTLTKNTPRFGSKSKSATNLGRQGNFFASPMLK

[11] = Luminescence Cell-Based Dose Confirmation HTS to Identify Inhibitors of Platelet Dense Granule Release. [Related pubchem assays: 1663 (Primary HTS), 1678 (Summary of Project)]; assay type: functional
[12] = HEp-2 cell cytotoxicity, dose response, cytotoxicity control for RSV inhibitor project, HTS (AID 2410); assay type: functional; conditions: human respiratory syncytial virus
[13] = cells
[14] = cytotoxicity toward NIH3T3 fibroblasts, dose response, counter-screen, cell-based, ATP luminescence, mouse fibroblasts (AID 2010); assay type: functional;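 also: cells exposed to compound for about 90 hours before reading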
[15] = tested on: HeLa; assay: HeLa cell cytotoxicity, dose response, cytotoxicity control, 24 h, cherry-picked samples (AID 504726); assay type: functional, cell-based; conditions: Homo sapiens;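 also: potency for cytotoxicity as loss of luminescence signal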
[16] = target: T2, Zinc finger protein mex-5 (Caenorhabditis elegans, UniProt Q9XUB2); assay: MEX-5/TCR-2 RNA interaction inhibitors, dose response, biochemical, C. elegans, fluorescence polarization (AID 1960)
T2 sequence (Q9XUB2 whole entry): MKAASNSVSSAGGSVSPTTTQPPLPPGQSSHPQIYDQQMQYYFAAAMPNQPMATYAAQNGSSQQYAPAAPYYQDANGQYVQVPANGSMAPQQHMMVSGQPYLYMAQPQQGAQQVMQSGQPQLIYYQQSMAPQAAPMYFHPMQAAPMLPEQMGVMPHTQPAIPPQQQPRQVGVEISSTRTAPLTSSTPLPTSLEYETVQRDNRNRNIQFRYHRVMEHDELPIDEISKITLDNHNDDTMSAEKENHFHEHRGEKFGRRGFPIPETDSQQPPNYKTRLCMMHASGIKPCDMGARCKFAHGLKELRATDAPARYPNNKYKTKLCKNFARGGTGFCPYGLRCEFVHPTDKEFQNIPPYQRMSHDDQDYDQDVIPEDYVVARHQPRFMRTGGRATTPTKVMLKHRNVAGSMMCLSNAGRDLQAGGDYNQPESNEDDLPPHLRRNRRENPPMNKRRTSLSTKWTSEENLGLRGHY

[17] = inhibitors of intracellular T. cruzi replication, confirmation, NIH3T3 host cells, beta-gal luminescence (AID 2044); assay type: functional, cell-based;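 also: intracellular parasites grown in NIH/3T3 mouse fibroblasts as host cells; luminescent beta-galactosidase reporter signal from transgenic T. cruzi replicating inside host cells; inhibitors lower the luminescence signal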
[18] = target: T3, RNA-binding protein pos-1 (Caenorhabditis elegans, UniProt G5EF15); assay: inhibitors of POS-1/mex-3 RNA binding, dose response, biochemical, fluorescence polarization (AID 1964);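 also: purified POS-1 fused to maltose binding protein made in E. coli; potency of compounds blocking POS-1 binding to fluorescent RNA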
T3 sequence (G5EF15 whole entry): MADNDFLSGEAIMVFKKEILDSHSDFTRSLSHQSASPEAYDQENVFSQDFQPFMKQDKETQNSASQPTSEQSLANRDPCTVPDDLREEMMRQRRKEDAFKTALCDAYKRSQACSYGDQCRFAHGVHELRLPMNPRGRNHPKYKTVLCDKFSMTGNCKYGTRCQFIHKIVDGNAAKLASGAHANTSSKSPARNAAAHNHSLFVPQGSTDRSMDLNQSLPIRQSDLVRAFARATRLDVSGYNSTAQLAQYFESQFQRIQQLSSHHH

[19] = tested on: HeLa; assay: HeLa cell cytotoxicity, dose response, cytotoxicity control for MITF activator project, CellTiter-Glo luminescence, cherry-pick samples (AID 540259); assay type: functional, cell-based; conditions: Homo sapiens
[20] = target: Cyclin-dependent kinase 5/CDK5 activator 1 (Homo sapiens, UniProt Q00535); assay: CDK5/p35 kinase inhibitors, dose response, biochemical, cherry-picked samples, set 2 (AID 504545)
[21] = target: T4, Ubiquitin-conjugating enzyme E2 N (Homo sapiens, UniProt P61088); assay type: functional
T4 sequence (P61088 whole entry): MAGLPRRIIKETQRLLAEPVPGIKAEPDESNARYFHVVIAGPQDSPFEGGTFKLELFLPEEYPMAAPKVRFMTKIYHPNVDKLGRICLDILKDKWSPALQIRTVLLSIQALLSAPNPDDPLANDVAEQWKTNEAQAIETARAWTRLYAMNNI

[22] = target: T5, Bcl-2-related protein A1 (Mus musculus, UniProt Q07440); assay type: functional;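 also: confirmatory dose–response counterscreen on Bfl-1, used to check hits from a UBC13 polyubiquitin inhibitor campaign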
T5 sequence (Q07440 whole entry): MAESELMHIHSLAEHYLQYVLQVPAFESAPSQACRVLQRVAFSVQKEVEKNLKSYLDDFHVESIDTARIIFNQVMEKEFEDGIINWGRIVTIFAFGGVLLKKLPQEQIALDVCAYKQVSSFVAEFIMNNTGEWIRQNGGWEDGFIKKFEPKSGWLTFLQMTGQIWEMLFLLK

[23] = cells; remark: listed apart in the source
[24] = target: T4, Ubiquitin-conjugating enzyme E2 N; assay type: functional; remark: listed apart in the source

DNA dC->dU-editing enzyme APOBEC-3G, sequence (Q9HC16 whole entry): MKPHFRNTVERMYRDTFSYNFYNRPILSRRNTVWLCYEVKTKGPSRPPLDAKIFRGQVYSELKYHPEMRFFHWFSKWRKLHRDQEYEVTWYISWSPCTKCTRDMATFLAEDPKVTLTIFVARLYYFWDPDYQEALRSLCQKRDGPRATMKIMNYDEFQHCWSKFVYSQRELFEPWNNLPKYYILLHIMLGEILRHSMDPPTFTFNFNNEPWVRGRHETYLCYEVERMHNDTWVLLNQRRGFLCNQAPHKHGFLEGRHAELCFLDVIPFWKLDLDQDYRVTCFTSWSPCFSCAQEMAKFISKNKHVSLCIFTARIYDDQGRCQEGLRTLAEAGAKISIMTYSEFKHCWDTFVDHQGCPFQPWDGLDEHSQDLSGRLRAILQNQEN
Luciferin 4-monooxygenase, sequence (P08659 whole entry): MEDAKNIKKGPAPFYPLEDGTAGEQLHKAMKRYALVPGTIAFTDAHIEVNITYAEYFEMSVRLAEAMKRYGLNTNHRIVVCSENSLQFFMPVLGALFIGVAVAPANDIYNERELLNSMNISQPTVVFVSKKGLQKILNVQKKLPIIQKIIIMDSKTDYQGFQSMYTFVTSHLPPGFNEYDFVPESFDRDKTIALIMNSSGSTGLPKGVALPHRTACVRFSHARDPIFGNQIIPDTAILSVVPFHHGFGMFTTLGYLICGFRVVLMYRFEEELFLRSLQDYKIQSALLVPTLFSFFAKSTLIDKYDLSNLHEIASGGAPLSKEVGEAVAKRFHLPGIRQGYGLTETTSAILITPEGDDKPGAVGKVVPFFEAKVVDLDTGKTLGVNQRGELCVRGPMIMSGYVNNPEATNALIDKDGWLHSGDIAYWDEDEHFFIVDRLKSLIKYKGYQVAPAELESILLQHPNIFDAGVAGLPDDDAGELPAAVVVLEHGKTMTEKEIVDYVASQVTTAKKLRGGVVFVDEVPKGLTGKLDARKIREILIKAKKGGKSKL
Cyclin-dependent kinase 5/CDK5 activator 1, sequence (Q00535 whole entry): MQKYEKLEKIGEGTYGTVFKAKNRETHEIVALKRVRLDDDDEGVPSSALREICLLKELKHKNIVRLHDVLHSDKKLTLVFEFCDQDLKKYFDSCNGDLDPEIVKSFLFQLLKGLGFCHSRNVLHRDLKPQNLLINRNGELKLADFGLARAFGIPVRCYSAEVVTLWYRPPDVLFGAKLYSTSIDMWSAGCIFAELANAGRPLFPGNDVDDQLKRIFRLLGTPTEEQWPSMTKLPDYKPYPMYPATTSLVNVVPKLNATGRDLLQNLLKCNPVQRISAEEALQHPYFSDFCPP
Cyclin-dependent kinase 5/CDK5 activator 1, sequence (Q15078 whole entry, further chain): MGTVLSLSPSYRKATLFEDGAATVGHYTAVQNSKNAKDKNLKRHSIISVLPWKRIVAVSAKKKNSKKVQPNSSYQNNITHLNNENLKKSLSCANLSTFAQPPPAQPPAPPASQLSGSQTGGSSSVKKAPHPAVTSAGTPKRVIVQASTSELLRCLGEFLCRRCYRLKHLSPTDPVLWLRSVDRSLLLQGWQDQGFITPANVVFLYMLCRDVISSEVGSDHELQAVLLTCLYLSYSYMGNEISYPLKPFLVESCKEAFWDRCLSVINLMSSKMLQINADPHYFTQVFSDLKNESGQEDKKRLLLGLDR
DNA dC->dU-editing enzyme APOBEC-3A, sequence (P31941 whole entry): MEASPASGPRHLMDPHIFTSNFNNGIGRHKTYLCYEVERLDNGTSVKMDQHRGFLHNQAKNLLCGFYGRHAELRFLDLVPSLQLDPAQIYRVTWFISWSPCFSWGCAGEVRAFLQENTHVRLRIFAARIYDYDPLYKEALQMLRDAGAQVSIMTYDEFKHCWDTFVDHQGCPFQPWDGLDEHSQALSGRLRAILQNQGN
Polyadenylate-binding protein 1, sequence (P11940 whole entry): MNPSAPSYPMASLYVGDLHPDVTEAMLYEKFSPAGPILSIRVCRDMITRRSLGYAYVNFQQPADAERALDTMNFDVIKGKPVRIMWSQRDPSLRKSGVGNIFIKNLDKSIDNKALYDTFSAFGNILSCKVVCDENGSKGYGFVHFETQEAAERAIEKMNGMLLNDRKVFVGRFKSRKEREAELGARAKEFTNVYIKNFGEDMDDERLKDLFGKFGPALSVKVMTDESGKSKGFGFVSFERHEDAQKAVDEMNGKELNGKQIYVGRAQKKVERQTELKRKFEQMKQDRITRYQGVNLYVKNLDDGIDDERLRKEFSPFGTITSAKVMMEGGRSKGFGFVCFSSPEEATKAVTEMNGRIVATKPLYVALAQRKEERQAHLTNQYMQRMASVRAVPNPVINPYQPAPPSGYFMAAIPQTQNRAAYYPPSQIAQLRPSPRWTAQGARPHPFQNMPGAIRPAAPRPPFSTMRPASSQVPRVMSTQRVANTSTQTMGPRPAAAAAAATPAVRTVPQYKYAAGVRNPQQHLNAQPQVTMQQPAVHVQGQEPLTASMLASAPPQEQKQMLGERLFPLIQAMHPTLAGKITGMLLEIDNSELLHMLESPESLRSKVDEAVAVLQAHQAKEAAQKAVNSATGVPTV

C[N+]12CCCCC1[C@@H](CO)CCC2 (stereo partly specified)
IC50 [1]: 2.79 µM (active)
IC50 [2]: 4.19 µM (active)
IC50 [3]: 5.51 µM (active)
IC50 [4]: > 100 µM (inactive)

CCC(=O)NC(=S)Nc1ccc(NC(=O)c2cccc([N+](=O)[O-])c2C)cc1
CC50 [5]: > 40 µM (active)
EC50 [6]: > 350 µM (not active)
EC50 [7]: > 350 µM (not active)

COc1cc(OC)c2cc[nH]c2c1
IC50 [8]: > 100 µM (active)
EC50 [9]: > 112 µM (not active)
IC50 [10]: 108 µM (active)
EC50 [11]: > 112 µM (not active)

CCC(C)NC(=O)c1cc2cc3ccc(OC)cc3nc2s1 (stereo unspecified)
CC50 [12]: 44.8 µM (active)
IC50 [13]: 10.8 µM (active)

CN1CCc2c(sc(NC(=O)c3ccc4ccccc4c3)c2C(N)=O)C1
EC50 [14]: 9.24 µM (active)
AC50 [15]: 35.3 µM (active)
EC50 [16]: > 300 µM (inconclusive)
EC50 [17]: 3.25 µM (active)
EC50 [18]: > 300 µM (not active)
AC50 [19]: 24.5 µM (active)

CC(C)n1cnc2c(Nc3ccc(C(=O)O)cc3)nc(Cl)nc21
AC50 [20]: 22.2 µM (active)

CN(C)CCCN(C(=O)c1ccc(S(=O)(=O)N2CCCCCC2)cc1)c1nc2cc3c(cc2s1)OCCO3
EC50 [14]: > 60 µM (not active)
IC50 [21]: 4.63 µM (active)
IC50 [22]: > 20 µM (inactive)
EC50 [23]: 0.201 µM (active)
EC50 [17]: < 0.1 µM (active)
IC50 [24]: 4.41 µM (active)
